One assay relates to parasite. The assay can be described thus: Parasite LDH growth assay (Parasite Assay). It is filed as cell-based, Plasmodium falciparum. The settings on record: Plasmodium falciparum, 72 h, ring stage parasites, 72 hours growth at 37° C., LDH readout of parasite growth. As for the experimental part:
Assessing Antiparasite Potency in a Parasite LDH Growth Assay (Parasite Assay) The parasite stock was maintained at 4% haematocrit in RPMI-Hepes media 30 buffered with sodium bicarbonate and supplemented with 5% heat inactivated human serum and 0.5% albumax. Approximately 42 hours prior to the potency assay being set up, parasites were synchronized with 5% sorbitol to select for ring stage parasites. On the day of assay set up, a blood smear of the parasite culture was Giemsa stained and counted. The parasitemia was 35 adjusted to 0.7% rings and the haematocrit was diluted to 2% in RPMI-Hepes media buffered with sodium bicarbonate and supplemented with 5% heat inactivated human serum and 0.5% albumax. 30 ul of diluted parasites are then added into 10 μl of media+compound in pre-prepared Greiner TC assay plates. Parasite assay plates were placed in gassed humidified boxes in single layer and allowed to incubate at 37° C. for 72 hours. After 72 hours growth, assay plates are sealed with parafilm and frozen flat, in single file at −80° C. overnight. On the following day, assay plates were allowed to thaw at room temperature for 4 hours to which an LDH assay was performed to measure parasite growth.
For `CCC12CCCCCc3ccc4c(c3)[C@H](CC(C)(C)O4)NC(=O)c3ccc4c(c3)[C@@H]([C@H](COC)CO4)N(C(=N)N1)C(=O)C2` (mixture of isomers) [Example 16B, rac-(1R,18S,27R)-5-ethyl-3-imino-27-(methoxymethyl)-16,16-dimethyl-15,25-dioxa-2,4,19-triazahexacyclo[19. 6.2.22,5.211,14.013, 18.024,28] tritriaconta-11,13,21,23,28,30-hexaene-20,33-dione], it took 3.4 nM to reach a half-maximal effect (EC50).
As to `CCC12CCCC3CC3c3ccc4c(c3)[C@H](CC(C)(C)O4)NC(=O)c3ccc4c(c3)[C@@H]([C@H](COC)CO4)N(C(=N)N1)C(=O)C2` (mixture of isomers) [Example 17, rac-(12R,13R,22S)-8-ethyl-10-imino-13-(methoxymethyl)-24,24-dimethyl-15,25-dioxa-9,11,21-triazaheptacyclo[20. 6.2.28,11.216,19.02, 4.012,17.026,30] tetratriaconta-1(29),16(32),17,19 (31),26(30),27-hexaene-20,33-dione], the EC50 was 18.9 nM.
On the same count and under the same terms, under `CC[C@]12CCC/C=C/c3ccc4c(c3)[C@H](CCO4)NC(=O)c3ccc4c(c3)[C@@H](CCO4)N(C(=N)N1)C(=O)C2` (racemic) [Example 18, rac-(1R,5R,9E,18S)-5-ethyl-3-imino-15,25-dioxa-2,4,19-triazahexacyclo[19. 6.2.22,5.211,14.013, 18.024,28] tritriaconta-9,11,13,21,23,28,30-heptaene-20,33-dione] stands 6 nM; under `CC[C@]12CCCCCc3ccc4c(c3)[C@H](CCO4)NC(=O)c3ccc4c(c3)[C@@H](CCO4)N(C(=N)N1)C(=O)C2` (racemic) [Example 19, rac-(1R,5R,18S)-5-ethyl-3-imino-15,25-dioxa-2,4,19-triazahexacyclo[19. 6.2.22,5.211,14.013, 18.024,28] tritriaconta-11,13,21,23,28,30-hexaene-20,33-dione], 4.8 nM; under `CCC12CC/C=C/c3ccc4c(c3)[C@H](CC(C)(C)O4)NC(=O)c3ccc4c(c3)[C@@H](CCO4)N(C(=N)N1)C(=O)C2` (mixture of isomers) [Example 20, rac-(1R,8E,17S)-5-ethyl-3-imino-15,15-dimethyl-14,24-dioxa-2,4,18-triazahexacyclo[18. 6.2.22,5.210,13.012, 17.023,27] dotriaconta-8,10,12,20,22,27,29-heptaene-19,32-dione], 3.6 nM.
Same read-out and setting: the result for `CC[C@]12CCCC3CC3c3ccc4c(c3)[C@H](CCO4)NC(=O)c3ccc4c(c3)[C@@H](CCO4)N(C(=N)N1)C(=O)C2` (mixture of isomers) [Example 21, rac-(8R,12R,22S)-8-ethyl-10-imino-15,25-dioxa-9,11,21-triazaheptacyclo[20. 6.2.28,11.216,19.02, 4.012,17.026,30] tetratriaconta-1(29),16(32),17,19 (31),26(30),27-hexaene-20,33-dione] reads 5.1 nM; that for `CC[C@]12CCCCCc3ccc4c(c3)OC(C)(C)C[C@@H]4NC(=O)c3ccc4c(c3)[C@@H](CCO4)N(C(=N)N1)C(=O)C2` (racemic) [Example 22, rac-(1R,5R,19S)-5-ethyl-3-imino-17,17-dimethyl-16,26-dioxa-2,4,20-triazahexacyclo[20. 6.2.22,5.111,15.014, 19.025,29] tritriaconta-11(31),12,14,22,24, 29-hexaene-21,33-dione], 57.4 nM.
The same measure, in the same setting: the result for `CCC12CCCCC/C=C\c3ccc4c(c3)OC(C)(C)C[C@@H]4NC(=O)c3ccc4c(c3)[C@@H](CCO4)N(C(=N)N1)C(=O)C2` (racemic) [Example 23, rac-(1R,11Z,21S)-5-ethyl-3-imino-19,19-dimethyl-18,28-dioxa-2,4,22-triazahexacyclo[22. 6.2.22,5.113,17.016, 21.027,31] pentatriaconta-11,13(33),14,16,24, 26,31-heptaene-23,35-dione] reads 7.5 nM.

Still in this assay, the particulars now being: ring stage parasites, 72 hours growth at 37° C., LDH readout of parasite growth.
Turning to `CCC12CCCCCCCc3ccc4c(c3)OC(C)(C)C[C@@H]4NC(=O)c3ccc4c(c3)[C@@H](CCO4)N(C(=N)N1)C(=O)C2` (racemic) [Example 24A, rac-(1R,21S)-5-ethyl-3-imino-19,19-dimethyl-18,28-dioxa-2,4,22-triazahexacyclo[22. 6.2.22,5.113,17.016, 21.027,31] pentatriaconta-13(33),14,16,24,26, 31-hexaene-23,35-dione], the EC50 came out at 5.4 nM.
`CCC12CCCCCCCc3ccc4c(c3)OC(C)(C)C[C@@H]4NC(=O)c3ccc4c(c3)[C@@H](CCO4)N(C(=N)N1)C(=O)C2` (racemic) [Example 24B, rac-(1R,21S)-5-ethyl-3-imino-19,19-dimethyl-18,28-dioxa-2,4,22-triazahexacyclo[22. 6.2.22,5.113,17.016, 21.027,31] pentatriaconta-13(33),14,16,24,26, 31-hexaene-23,35-dione]: it took 2 nM to reach a half-maximal effect (EC50). Against the preceding compound, the EC50 is about 2.7-fold lower.
Regarding `COC[C@@H]1COc2ccc3cc2[C@@H]1N1C(=N)NC(C)(CCCCCc2ccc4c(c2)[C@H](CC(C)(C)O4)NC3=O)CC1=O` (mixture of isomers) [Example 25A, rac-(1R,18S,27R)-3-imino-27-(methoxymethyl)-5,16,16-trimethyl-15,25-dioxa-2,4,19-triazahexacyclo[19. 6.2.22,5.211,14.013, 18.024,28] tritriaconta-11,13,21,23,28,30-hexaene-20,33-dione], the EC50 is 23 nM.
On the same count and under the same terms, the result for `COC[C@@H]1COc2ccc3cc2[C@@H]1N1C(=N)NC(C)(CCCCCc2ccc4c(c2)[C@H](CC(C)(C)O4)NC3=O)CC1=O` (mixture of isomers) [Example 25B, rac-(1R,18S,27R)-3-imino-27-(methoxymethyl)-5,16,16-trimethyl-15,25-dioxa-2,4,19-triazahexacyclo[19. 6.2.22,5.211,14.013, 18.024,28] tritriaconta-11,13,21,23,28,30-hexaene-20,33-dione] reads 0.7 nM; that for `CCC12CCC/C=C/c3ccc4c(c3)[C@H](CC(C)(C)O4)NC(=O)c3ccc4c(c3)[C@@H]([C@H](COC)CO4)N(C(=N)N1)C(=O)C2` (mixture of isomers) [Example 26A, rac-(1R,9E,18S,27R)-5-ethyl-3-imino-27-(methoxymethyl)-16,16-dimethyl-15,25-dioxa-2,4,19-triazahexacyclo[19. 6.2.22,5.211,14.013, 18.024,28] tritriaconta-9,11,13,21,23,28,30-heptaene-20,33-dione], 190 nM; that for `CCC12CCC/C=C/c3ccc4c(c3)[C@H](CC(C)(C)O4)NC(=O)c3ccc4c(c3)[C@@H]([C@H](COC)CO4)N(C(=N)N1)C(=O)C2` (mixture of isomers) [Example 26B, rac-(1R,9E,18S,27R)-5-ethy1-3-imino-27-(methoxymethyl)-16,16-dimethyl-15,25-dioxa-2,4,19-triazahexacyclo[19. 6.2.22,5.211,14.013, 18.024,28] tritriaconta-9,11,13,21,23,28,30-heptaene-20,33-dione], 7.4 nM.
`CCC12CCCCCc3ccc4c(c3)[C@@H](NC(=O)c3ccc5c(c3)[C@@H]([C@H](COC)CO5)N(C(=N)N1)C(=O)C2)[C@H](O)C4` (single isomer, unassigned) [Example 15A]: the EC50 worked out at 9.2 nM. This EC50 and that of the compound before are within 1.5-fold of each other.
Compound `CCC12CCCCCc3ccc4c(c3)[C@@H](NC(=O)c3ccc5c(c3)[C@@H]([C@H](COC)CO5)N(C(=N)N1)C(=O)C2)[C@H](O)C4` (single isomer, unassigned) [Example 15B] registered an EC50 of 81 nM.

In general, EC50 refers to the concentration giving half of the maximal effect. Read a low EC50 as an effect from little substance.

The record behind these values is patent US20250066379A1, “ANTIMALARIAL AGENTS” (Merck Sharp & Dohme LLC, priority 2021, published 2025).
